One test concerns the target T1, human poly-histidine tagged KSP motor domain (KSP(367H)) (Homo sapiens, UniProt P52732).
T1 construct: were used to amplify the motor domain and the neck linker region; made in house; host or cells: E. coli BL21 (DE3), vector pRSETa
T1 sequence (P52732 18-359 limits assumed): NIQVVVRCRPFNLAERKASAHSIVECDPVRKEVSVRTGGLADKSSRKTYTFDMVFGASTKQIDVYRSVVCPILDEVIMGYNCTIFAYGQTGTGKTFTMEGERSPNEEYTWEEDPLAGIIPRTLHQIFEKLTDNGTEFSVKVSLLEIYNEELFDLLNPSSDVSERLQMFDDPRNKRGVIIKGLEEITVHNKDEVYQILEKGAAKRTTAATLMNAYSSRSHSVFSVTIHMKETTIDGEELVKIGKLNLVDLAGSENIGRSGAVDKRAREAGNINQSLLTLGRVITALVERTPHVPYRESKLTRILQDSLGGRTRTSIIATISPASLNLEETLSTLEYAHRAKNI
The experiment in a line: Kinesin ATPase In Vitro Assay.
Details: not given
Type of test: biochemical. Here is the method: I. Kinesin ATPase In Vitro Assay
The N-terminal primer 5′-[…] (SEQ. ID. NO.: 1) and the C-terminal primer 5′-[…] […] (SEQ. ID. NO.: 2)
were used to amplify the motor domain and the neck linker region. The PCR products were digested with AseI and XhoI, ligated into the NdeI/XhoI digestion product of pRSETa (Invitrogen) and transformed into E. coli BL21 (DE3).
Cells were grown at 37° C. to an OD600 of 0.5. After cooling the culture to room temperature expression of KSP was induced with 100 μM IPTG and incubation was continued overnight. Cells were pelleted by centrifugation and washed once with ice-cold PBS. Pellets were flash-frozen and stored −80° C.
Protein Purification: Cell pellets were thawed on ice and resuspended in lysis buffer (50 mM K-HEPES, pH 8.0, 250 mM KCl, 0.1% Tween, 10 mM imidazole, 0.5 mM Mg-ATP, 1 mM PMSF, 2 mM benzimidine, 1× complete protease inhibitor cocktail (Roche)). Cell suspensions were incubated with 1 mg/ml lysozyme and 5 mM β-mercaptoethanol on ice for 10 minutes, followed by sonication (3×30 sec). All subsequent procedures were performed at 4° C. Lysates were centrifuged at 40,000×g for 40 minutes. Supernatants were diluted and loaded onto an SP Sepharose column (Pharmacia, 5 ml cartridge) in buffer A (50 mM K-HEPES, pH 6.8, 1 mM MgCl2, 1 mM EGTA, 10 μM Mg-ATP, 1 mM DTT) and eluted with a 0 to 750 mM KCl gradient in buffer A. Fractions containing KSP were pooled and incubated with Ni-NTA resin (Qiagen) for one hour. The resin was washed three times with buffer B (Lysis buffer minus PMSF and protease inhibitor cocktail), followed by three 15-minute incubations and washes with buffer B. Finally, the resin was incubated and washed for 15 minutes three times with buffer C (same as buffer B except for pH 6.0) and poured into a column. KSP was eluted with elution buffer (identical to buffer B except for 150 mM KCl and 250 mM imidazole). KSP-containing fractions were pooled, made 10% in sucrose, and stored at −80° C.
Microtubules are prepared from tubulin isolated from bovine brain. Purified tubulin (>97% MAP-free) at 1 mg/ml is polymerized at 37° C. in the presence of 10 μM paclitaxel, 1 mM DTT, 1 mM GTP in BRB80 buffer (80 mM K-PIPES, 1 mM EGTA, 1 mM MgCl2 at pH 6.8). The resulting microtubules are separated from non-polymerized tubulin by ultracentrifugation and removal of the supernatant. The pellet, containing the microtubules, is gently resuspended in 10 μM paclitaxel, 1 mM DTT, 50 μg/ml ampicillin, and 5 μg/ml chloramphenicol in BRB80.
The kinesin motor domain is incubated with microtubules, 1 mM ATP (1:1 MgCl2: Na-ATP), and compound at 23° C. in buffer containing 80 mM K-HEPES (pH 7.0), […], 1 mM DTT, 1 mM MgCl2, and 50 mM KCl. The reaction is terminated by a 2-10 fold dilution with a final buffer composition of 80 mM HEPES and 50 mM EDTA. […] The reaction is incubated for 10 minutes at 23° C., and the absorbance of the phospho-molybdate complex is measured at 540 nm.
What is called IC50 is the concentration that inhibits the measured activity by half. As to `CC(=O)C1=NN2c3cc(F)ccc3OCC2C1(CCCN1CCOCC1)c1ccccc1` [Compound 4-14, (3R,4R) 1-[8-fluoro-3-(3-morpholin-4-ylpropyl)-3-phenyl-3a,4-dihydro-3H-pyrazolo[5,1-c][1,4]benzoxazin-2-yl]ethanone], the IC50 was ≤ 30 µM.
Still for that read-out and setting: under `CC(=O)C1=NN2c3cc(C)ccc3OCC2C1(CCCN1CCOCC1)c1ccccc1` [Compound 4-19, (3R,4R) 1-[8-methyl-3-(3-morpholin-4-ylpropyl)-3-phenyl-3a,4-dihydro-3H-pyrazolo[5,1-c][1,4]benzoxazin-2-yl]ethanone] stands ≤ 30 µM; under `CC(=O)C1=NN2c3cc(F)ccc3OC[C@H]2[C@@]1(CCCN1CCC(=O)N(C)CC1)c1ccccc1` [Compound 4-38, 1-{3-[(3R,4R)-2-acetyl-8-fluoro-3-phenyl-3a,4-dihydro-3H-pyrazolo[5,1-c][1,4]benzoxazin-3-yl]propyl}-4-methyl-1,4-diazepan-5-one], ≤ 30 µM; under `CC(=O)C1=NN2c3cc(F)ccc3OC[C@H]2[C@H]1c1ccccc1` [Compound 1-8a, (3R,4R)-1-(8-Fluoro-3-phenyl-3a,4-dihydro-3H-pyrazolo[5,1-c][1,4]benzoxazin-2-yl)ethanone], ≤ 30 µM.

Still in this test, the particulars now being: (3R,4R) enantiomeric form tested; kinesin motor domain with microtubules, 1 mM ATP, 23° C., free phosphate by quinaldine red/ammonium molybdate; read-out: IC50.
As to `CON(C)C(=O)C1=NN2c3cc(F)ccc3OC[C@H]2[C@H]1c1ccccc1` [Compound 1-7, (3R,4R)-8-Fluoro-N-methoxy-N-methyl-3-phenyl-3a,4-dihydro-3H-pyrazolo[5,1-c][1,4]benzoxazine-2-carboxamide], the half-inhibitory concentration (IC50) was ≤ 30 µM.
Still for that read-out and setting: under `CC(=O)C1=NN2c3cc(F)ccc3OC[C@H]2[C@@]1(CCCN1CCN(C(=O)C(C)(C)C)CC1)c1ccccc1` [Compound 4-30, 1-((3R,4R)-3-{3-[4-(2,2-dimethylpropanoyl)piperazin-1-yl]propyl}-8-fluoro-3-phenyl-3a,4-dihydro-3H-pyrazolo[5,1-c][1,4]benzoxazin-2-yl)ethanone] stands ≤ 30 µM; under `CC(=O)C1=NN2c3cc(F)ccc3OC[C@H]2[C@@]1(CCCN1CCN(C(=O)N(C)C)CC1)c1ccccc1` [Compound 4-29, 4-{3-[(3R,4R)-2-acetyl-8-fluoro-3-phenyl-3a,4-dihydro-3H-pyrazolo[5,1-c][1,4]benzoxazin-3-yl]propyl}-N,N-dimethylpiperazine-1-carboxamide], ≤ 30 µM; under `CC(=O)C1=NN2c3cc(F)ccc3OC[C@H]2[C@@]1(CCCN1CCN(C(=O)CO)CC1)c1ccccc1` [Compound 4-25, 1-{(3R,4R)-8-fluoro-3-[3-(4-glycoloylpiperazin-1-yl)propyl]-3-phenyl-3a,4-dihydro-3H-pyrazolo[5,1-c][1,4]benzoxazin-2-yl}ethanone], ≤ 30 µM.
Consider `CON(C)C(=O)C1=NN2c3cc(F)ccc3OC[C@H]2[C@@]1(CCCO)c1ccccc1` [Compound 4-11, (3R,4R) 8-fluoro-3-(3-hydroxypropyl)-N-methoxy-N-methyl-3-phenyl-3a,4-dihydro-3H-pyrazolo[5,1-c][1,4]benzoxazine-2-carboxamide], for which the 50% inhibitory concentration (IC50) is ≤ 30 µM.

(Values after patent publication US7632833B2, “Mitotic kinesin inhibitors” (Merck & Co., Inc., priority 2004, dated 2009).)
